According to US20190142971A1, “FORMULATION AND DELIVERY OF MODIFIED NUCLEOSIDE, NUCLEOTIDE, AND NUCLEIC ACID COMPOSITIONS” (ModernaTX, Inc., priority 2013, published 2019):

What was measured:
[1] = test system: HeLa cells; assay: Example 75: chemical modifications of luciferase mRNA, RLU (Table 114); type: cell-based; conditions: 83 ng luciferase mRNA, 18 to 22 hours
Method: The day before transfection, 20,000 HeLa cells (ATCC no. CCL-2; Manassas, Va.) were harvested by treatment with Trypsin-EDTA solution (Life Technologies, Grand Island, N.Y.) and seeded in a total volume of 100 ul EMEM medium (supplemented with 10% FCS and 1× Glutamax) per well in a 96-well cell culture plate (Corning, Manassas, Va.). The cells were grown at 37° C. in 5% CO2 atmosphere overnight. […] Lipofectamine 2000 (LifeTechnologies, Grand Island, N.Y.) was used as transfection reagent and 0.2 ul were diluted in 10 ul final volume of OPTI-MEM. After 5 minutes of incubation at room temperature, both solutions were combined and incubated an additional 15 minute at room temperature. Then the 20 ul combined solution was added to the 100 ul cell culture medium containing the HeLa cells and incubated at room temperature.
After 18 to 22 hours of incubation cells expressing luciferase were lysed with 100 ul of Passive Lysis Buffer (Promega, Madison, Wis.) according to manufacturer instructions. Aliquots of the lysates were transferred to white opaque polystyrene 96-well plates (Corning, Manassas, Va.) and combined with 100 ul complete luciferase assay solution (Promega, Madison, Wis.). The lysate volumes were adjusted or diluted until no more than 2 mio relative light units (RLU) per well were detected for the strongest signal producing samples and the RLUs for each chemistry tested are shown in Table 114. The plate reader was a BioTek Synergy H1 (BioTek, Winooski, Vt.). The background signal of the plates without reagent was about 200 relative light units per well.

[2] = test system: Balb-C mice; assay: Example 88: chemically modified luciferase mRNA in PBS IM, SC, flux (Tables 136, 137); type: in vivo; conditions: luciferase mRNA in PBS (pH 7.4), 2.5 mg/kg
Method: Twenty minutes prior to imaging, mice were injected intraperitoneally with a D-luciferin solution at 150 mg/kg. Animals were then anesthetized and images were acquired with an IVIS Lumina II imaging system (Perkin Elmer). Bioluminescence was measured as total flux (photons/second) of the entire mouse. The mice were imaged at 2 hours, 8 hours and 24 hours. […] The background signal was 3.84E+05 (p/s).

[3] = test system: HEK293A; assay: Example 44: signal sequence exchange, secreted G-CSF ELISA (Table 70); type: cell-based; conditions: 293A, 250 ng mRNA, Lipofectamine 2000, supernatant 24 hrs
From the text: (§1) These variants included the G-CSF constructs encoding either the wild-type N terminal secretory signal peptide sequence ([…]; SEQ ID NO: 19), no secretory signal peptide sequence, or secretory signal peptide sequences taken from other mRNAs. These included sequences where the wild type GCSF signal peptide sequence was replaced with the signal peptide sequence of either: human α-1-anti trypsin (AAT) ([…]; SEQ ID NO: 20), human Factor IX (FIX) ([…]; SEQ ID NO: 21), human Prolactin (Prolac) ([…]; SEQ ID NO: 22), or human Albumin (Alb) ([…]; SEQ ID NO: 23).
(§2) 250 ng of modified mRNA encoding each G-CSF variant was transfected into HEK293A (293A in the table), mouse myoblast (MM in the table) (C2C12, CRL-1772, ATCC) and rat myoblast (RM in the table) (L6 line, CRL-1458, ATCC) cell lines in a 24 well plate using 1 ul of Lipofectamine 2000 (Life Technologies), each well containing 300,000 cells. […] The data shown in Table 70 reveal that cells transfected with G-CSF mmRNA encoding the Albumin signal peptide secrete at least 12 fold more G-CSF protein than its wild type counterpart.

[4] = test system: mouse myoblast (C2C12); assay: as above; type: cell-based; conditions: MM (mouse myoblast C2C12), 250 ng mRNA, supernatant 24 hrs
From the text: as §1, §2

[5] = test system: rat myoblast (L6 line); assay: as above; type: cell-based; conditions: RM (rat myoblast L6), 250 ng mRNA, supernatant 24 hrs
From the text: as §1, §2

[6] = test system: mice; assay: Example 41: IV lipoplexed G-CSF mRNA in mice, neutrophil count (Table 66); type: in vivo; conditions: IV 10% lipoplex, 50 ug at days 0, 2, 4; day 5
Method: Neutrophils were measured at days 1, 5 and 8. Controls included non-specific mammalian RNA or the formulation buffer alone (F.Buffer). The mice were bled at days 1, 5 and 8 to determine the effect of mRNA-encoded human G-CSF to increase neutrophil count. The dosing regimen is shown in Table 66 as are the resulting neutrophil counts (thousands/uL; K/uL).

[7] = test system: human PBMC; assay: Example 45: PBMC transfection, IFN-alpha ELISA (Table 72); type: cell-based
Method: The plates were then incubated at 37 C.
Each condition was done in duplicate.
Shown in Tables 71 and 72 are the average from 2 separate PBMC donors of the G-CSF and IFN-alpha production over time as measured by specific ELISA.

[8] = test system: BALB/C mice; assay: Example 59: G-CSF mRNA IM in mice, serum human G-CSF and mouse IFN-alpha ELISA (Table 93); type: in vivo
[9] = Example 61: storage stability of G-CSF mRNA, gel electrophoresis (Bio-Rad EXPERION); type: physicochemical
Method: Stability experiments were conducted to obtain a better understanding of storage conditions to retain the integrity of modified RNA. […] After the mRNA had been stored for 0 hours, 2 hours, 6 hours, 24 hours, 48 hours, 5 days and 14 days, the mRNA was analyzed by gel electrophoresis using a Bio-Rad EXPERION™ system. The modified, unmodified and lipoplexed G-CSF mRNA was also stored in RNASTABLE® (Biomatrica, Inc. San Diego, Calif.) at 40° C. or water at −80° C. or 40° C. for 35 days before being analyzed by gel electrophoresis.
mRNA samples stored at 4° C., 25° C. and 37° C. were stored in 1×TE buffer or the formulation buffer (150 mM sodium chloride, 2 mM calcium chloride, 2 mM phosphate, 0.5 mM EDTA at a pH of 6.5). The mRNA stored at 4° C. was stable to at least 60 days in both the TE and formulation buffer. At 25° C. the mRNA in formulation buffer was stable out to 14 days and the TE buffer was stable out to at least 6 days. Storage of mRNA in the formulation buffer at 37° C. was stable to 6 days compared to the TE buffer which was stable only until 4 days.

[10] = test system: BJ fibroblasts
[11] = I.M., 200 ug/mouse (R848 75 ug/mouse), 50 ul, 8 hours after dosing

5-methylcytosine and pseudouridine
RLU [1]: 1601234 RLU

COc1cn([C@@H]2O[C@H](CO)[C@@H](O)[C@H]2O)c(=O)[nH]c1=O [Formulation 5-methoxyuridine, 5-methoxyuridine]
Flux, Intramuscular Administration ([2]; 2 hours): 4.93E+06 p/s
Flux, Intramuscular Administration ([2]; 8 hours): 1.80E+07 p/s
Flux, Intramuscular Administration ([2]; 24 hours): 4.53E+07 p/s
Flux, Subcutaneous Administration ([2]; 2 hours): 7.10E+06 p/s
Flux, Subcutaneous Administration ([2]; 8 hours): 9.38E+06 p/s
Flux, Subcutaneous Administration ([2]; 24 hours): 1.32E+07 p/s

CC(=O)Nc1ccn([C@@H]2O[C@H](CO)[C@@H](O)[C@H]2O)c(=O)n1 [Formulation N4-acetylcytidine, N4-acetylcytidine]
Flux, Intramuscular Administration ([2]; 2 hours): 1.32E+07 p/s
Flux, Intramuscular Administration ([2]; 8 hours): 2.15E+07 p/s
Flux, Intramuscular Administration ([2]; 24 hours): 4.01E+07 p/s
Flux, Subcutaneous Administration ([2]; 2 hours): 3.07E+07 p/s
Flux, Subcutaneous Administration ([2]; 8 hours): 1.23E+07 p/s
Flux, Subcutaneous Administration ([2]; 24 hours): 1.28E+07 p/s

O=c1[nH]cc([C@@H]2O[C@H](CO)[C@@H](O)[C@H]2O)c(=O)[nH]1 [Pseudouridine]
RLU [1]: 140234 RLU

O=c1[nH]c(=O)n([C@@H]2O[C@H](CO)[C@@H](O)[C@H]2O)cc1Br [Sample 5-Bromouridine, 5-Bromouridine]
RLU [1]: 6787 RLU

COc1cn([C@@H]2O[C@H](CO)[C@@H](O)[C@H]2O)c(=O)[nH]c1=O [Sample 5-methoxyuridine, 5-methoxyuridine]
RLU [1]: 219657 RLU

Cn1cc([C@@H]2O[C@H](CO)[C@@H](O)[C@H]2O)c(=O)[nH]c1=O [Sample N1-methylpseudouridine, N1-methylpseudouridine]
RLU [1]: 3068261 RLU

CC(=O)Nc1ccn([C@@H]2O[C@H](CO)[C@@H](O)[C@H]2O)c(=O)n1 [Sample N4-Acetylcytidine, N4-Acetylcytidine]
RLU [1]: 1073251 RLU

Albumin
secreted G-CSF protein [3]: 122050 pg/mL
secreted G-CSF protein [4]: 81050 pg/mL
secreted G-CSF protein [5]: 173300 pg/mL

Prolactin
secreted G-CSF protein [3]: 7875 pg/mL
secreted G-CSF protein [4]: 1525 pg/mL
secreted G-CSF protein [5]: 9800 pg/mL

α-1-anti trypsin
secreted G-CSF protein [3]: 9950 pg/mL
secreted G-CSF protein [4]: 5000 pg/mL
secreted G-CSF protein [5]: 8475 pg/mL

B1: unmodified G-CSF mRNA: G-CSF mRNA (SEQ ID NO: 4) with natural NTPs, Cap1 (nucleic acid)
chain: GGGAAAUAAGAGAGAAAAGAAGAGUAAGAAGAAAUAUAAGAGCCACCAUGGCCGGUCCCGCGACCCAAAGCCCCAUGAAACUUAUGGCCCUGCAGUUGCUGCUUUGGCACUCGGCCCUCUGGACAGUCCAAGAAGCGACUCCUCUCGGACCUGCCUCAUCGUUGCCGCAGUCAUUCCUUUUGAAGUGUCUGGAGCAGGUGCGAAAGAUUCAGGGCGAUGGAGCCGCACUCCAAGAGAAGCUCUGCGCGACAUACAAACUUUGCCAUCCCGAGGAGCUCGUACUGCUCGGGCACAGCUUGGGGAUUCCCUGGGCUCCUCUCUCGUCCUGUCCGUCGCAGGCUUUGCAGUUGGCAGGGUGCCUUUCCCAGCUCCACUCCGGUUUGUUCUUGUAUCAGGGACUGCUGCAAGCCCUUGAGGGAAUCUCGCCAGAAUUGGGCCCGACGCUGGACACGUUGCAGCUCGACGUGGCGGAUUUCGCAACAACCAUCUGGCAGCAGAUGGAGGAACUGGGGAUGGCACCCGCGCUGCAGCCCACGCAGGGGGCAAUGCCGGCCUUUGCGUCCGCGUUUCAGCGCAGGGCGGGUGGAGUCCUCGUAGCGAGCCACCUUCAAUCAUUUUUGGAAGUCUCGUACCGGGUGCUGAGACAUCUUGCGCAGCCGUGAAGCGCUGCCUUCUGCGGGGCUUGCCUUCUGGCCAUGCCCUUCUUCUCUCCCUUGCACCUGUACCUCUUGGUCUUUGAAUAAAGCCUGAGUAGGAAG
modifications: Cap1
increase in neutrophil count above control [6]: no pharmacologic effect
IFN-alpha / cytokine production [7]: substantial IFN-alpha production
Protein: Cytokine Ratio (PC Ratio) ([8]; G-CSF / IFN-alpha): 9
G-CSF protein (human, serum) [8, 11]: 605.6 pg/mL
IFN-alpha expression (mouse, serum) [8, 11]: 67.01 pg/mL
PC Ratio (Protein: Cytokine Ratio) ([8]; I.M., 200 ug/mouse (R848 75 ug/mouse), 8 hours after dosing): 9
human G-CSF expression in mouse serum ([8]; IM, 8 hours): resulted in human G-CSF expression in mouse serum
mouse IFN-alpha in the serum (cytokine response) ([8]; IM, 8 hours): robust cytokine response
freeze/thaw cycles tolerated [9]: 12 cycles
stable out to ([9]; stored at 25° C.): 48 h
stable out to ([9]; stored at 37° C.): 6 h
stable out to ([9]; stored at 50° C.): 2 h
time to cytokine response (IFN-beta, IL-6) [10]: after one day
